Measured values reported in PubChem BioAssay AID248 (DTP/NCI, 2004).
Inconclusive results and toxic doses are left out. Cut-off read from the data, not from the text of the source: active = T/C of 150% or more; inactive = T/C below 125%.

Tested on: L1210 leukemia ip in BDF1 mice, survival T/C
Test: NCI In Vivo Anticancer Drug Screen. Data for tumor model L1210 Leukemia (intraperitoneal) in B6D2F1 (BDF1) mice
Conditions: endpoint: mean survival time, higher = longer survival
Method in brief: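 Transplantable tumor model; survival measured in treated vs vehicle control mice. Value = treated/control.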

[1] = dose: 100.0 mg/kg/injection, schedule: Q01DX009 (ip), vehicle: saline with Tween-80
[2] = dose: 200.0 mg/kg/injection, schedule: Q01DX009 (ip), vehicle: saline with Tween-80
[3] = dose: 100.0 mg/kg/injection, schedule: Q01DX001 (ip), vehicle: carboxymethylcellulose (CMC)
[4] = dose: 200.0 mg/kg/injection, schedule: Q01DX001 (ip), vehicle: carboxymethylcellulose (CMC)
[5] = dose: 400.0 mg/kg/injection, schedule: Q01DX001 (ip), vehicle: carboxymethylcellulose (CMC)
[6] = dose: 100.0 mg/kg/injection, schedule: Q04DX002 (ip), vehicle: saline with Tween-80
[7] = dose: 200.0 mg/kg/injection, schedule: Q04DX002 (ip), vehicle: saline with Tween-80
[8] = dose: 400.0 mg/kg/injection, schedule: Q04DX002 (ip), vehicle: saline with Tween-80

Measured: T/C

C[CH2][Ge]1([CH2]C)[CH2]CC2(C[CH2]1)NC(=O)N(CCCN(C)C)C2=O
inactive: dose: 100.0 mg/kg/injection, schedule: Q04DX002 (ip), vehicle: saline 100 % of control | dose: 200.0 mg/kg/injection, schedule: Q04DX002 (ip), vehicle: saline 105 % of control

Nc1nc(N)nc(SCCOCCSc2nc(N)nc(N)n2)n1
inactive: [1] 103 % of control | [2] 94 % of control | dose: 400.0 mg/kg/injection, schedule: Q01DX009 (ip), vehicle: saline with Tween-80 92 % of control

CCSC1C(O)C(C(O)CO)OC1n1ccc(=O)[nH]c1=O (stereo not drawn)
inactive: dose: 100.0 mg/kg/injection, schedule: Q01DX005 (ip), vehicle: saline 96 % of control | dose: 200.0 mg/kg/injection, schedule: Q01DX005 (ip), vehicle: saline 98 % of control

Cc1ccc(C(=O)c2ccccc2N)cc1C
inactive: [3] 100 % of control | [4] 116 % of control | [5] 102 % of control

CCOC(=O)c1c[nH]n2c(=S)ncnc12
inactive: [1] 96 % of control | dose: 100.0 mg/kg/injection, schedule: Q04DX003 (ip), vehicle: saline with Tween-80 98 % of control | [2] 97 % of control | dose: 200.0 mg/kg/injection, schedule: Q04DX003 (ip), vehicle: saline with Tween-80 104 % of control | dose: 400.0 mg/kg/injection, schedule: Q04DX003 (ip), vehicle: saline with Tween-80 102 % of control

CCCCCCCCCCC[CH2][Sn]([Cl])([CH2]CCCCCCCCCCC)[CH2]CCCCCCCCCCC
inactive: [6] 96 % of control | [7] 96 % of control | [8] 93 % of control

Cc1ccc2c(c1)C1(C)C=CC(=O)CC1O2 (stereo not drawn)
inactive: [6] 106 % of control | [7] 110 % of control | [8] 106 % of control

Cc1ccc(NC(=O)COc2ccc(Cl)cc2)cc1
inactive: dose: 100.0 mg/kg/injection, schedule: Q04DX002 (ip), vehicle: saline + alcohol 103 % of control | dose: 200.0 mg/kg/injection, schedule: Q04DX002 (ip), vehicle: saline + alcohol 100 % of control | dose: 400.0 mg/kg/injection, schedule: Q04DX002 (ip), vehicle: saline + alcohol 92 % of control

COC1CC(NC(=O)N(C)N=O)C(O)C(C)O1 (stereo not drawn)
inactive: dose: 400.0 mg/kg/injection, schedule: Q04DX003 (ip), vehicle: saline 106 % of control | dose: 500.0 mg/kg/injection, schedule: Q04DX003 (ip), vehicle: saline 101 % of control

CN(C)Cc1c(C(O)(c2ccccc2)c2ccccc2)cc2ccccc2c1Cl
inactive: dose: 50.0 mg/kg/injection, schedule: Q01DX001 (ip), vehicle: carboxymethylcellulose (CMC) 94 % of control | [3] 94 % of control | [4] 102 % of control | [5] 96 % of control

Nc1ccc(Cl)c(C(=O)O)c1
inactive: dose: 100.0 mg/kg/injection, schedule: Q01DX009 (ip), vehicle: Klucel (hydroxypropylcellulose) (HPC) 111 % of control | dose: 200.0 mg/kg/injection, schedule: Q01DX009 (ip), vehicle: Klucel (hydroxypropylcellulose) (HPC) 121 % of control | dose: 400.0 mg/kg/injection, schedule: Q01DX009 (ip), vehicle: Klucel (hydroxypropylcellulose) (HPC) 105 % of control
